Test results published in publication PMC10683025, “Discovery of a Hydroxylamine-Based Brain-Penetrant EGFR Inhibitor for Metastatic Non-Small-Cell Lung Cancer” (Journal of Medicinal Chemistry, 2023).
Like-named read-outs stand apart in the source and are kept apart here. Values belong to the molecule of their own block, whether it stands above or below them.

Experiments:
Plasma stability [1] = type: in vitro ADME, Sprague-Dawley rat; conditions: rat plasma
Procedure: (§1) Assessment of compounds to determine stability in incubations containing plasma of human (Pharmaron) and Sprague-Dawley rat (IPHASE) was performed by Pharmaron, Inc. using the compound […] approach. Compounds were assessed in duplicate (n = 2) and incubated in plasma at 5 μM and samples (50 μL) were taken at 0, 15, 30, 60, and 120 min time points for analysis by LC-MS/MS. Peak area ratios were determined from the extracted ion chromatogram and the percent compound remaining at each time point was calculated by the following equation: [drawing 2] where peak area ratiot min is the peak area ratio of control and test compound at t min and peak area ratio0 min is the peak area ratio of control and test compound at zero time point.

P-gp and BCRP = test system: P-gp and BCRP; design: method as in ref 17−20; conditions: ref 17−20; cited from earlier work
TA1535 = test system: TA1535; design: species or system Salmonella
TA98 = test system: TA98; design: species or system Salmonella;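 for Count (# of wells): Revertant-positive wells among 48 replicate wells per concentration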
Procedure: (§2) Compounds were assessed for mutagenicity at the Eurofins Panlabs in 384-well plates using four Salmonella strains: TA98, to probe for frameshift mutation (with quercetin as control), TA100 and TA1535, to probe for base pair insertions/deletions (with streptozotocin as control), and TA1537, to probe for frameshift mutations (with aminacridine as control) as previously described.[78] […] A concurrent bacterial cytotoxicity assay was run at 0.6, 1.2, 2.5, 5, 10, 25, 50, and 100 μM to rule out false negatives. Bacterial cytotoxicity was expressed as percent of control growth (OD650). Compounds with growth of less than 60% control were flagged and considered bacterial cytotoxic. […] Significances of the positive counts between the treatment and control were determined using a one-tailed Fisher’s exact test.

TA1537 = test system: TA1537; design: species or system Salmonella;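 for Count (# of wells): Revertant-positive wells among 48 replicate wells per concentration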
Procedure: as §2

TA100 = test system: TA100; design: species or system Salmonella;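 for Count (# of wells): Revertant-positive wells among 48 replicate wells per concentration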
Procedure: as §2

Plasma stability [2] = type: in vitro ADME, human; conditions: human plasma
Procedure: as §1

Caco-2 permeability = type: in vitro ADME; conditions: human; for efflux ratio at 2 h, 5 μM / Papp A→B at 2 h, 5 μM / Papp B→A at 2 h, 5 μM: Caco-2; for recovery at 2 h, 5 μM: Caco-2, Caco-2
Procedure: (§4) A 96-well HTS Transwell plate (Corning) was used for Caco-2 and MDCKII-MDR1 cell seeding. […] Plates were incubated at 37 °C for 2 h, and samples (50 μL) were taken at the beginning and end of the incubation in both the donor and acceptor wells with the assay run in duplicate (n = 2). Samples were analyzed by LC-MS/MS.
(§5) The efflux ratio was determined by using the following equation: [drawing 4] where Papp (B–A) indicates the apparent permeability in the basolateral to apical direction and Papp (A–B) indicates the apparent permeability in the apical to basolateral direction.

MDCKII-MDR1 permeability = type: in vitro ADME, canine; conditions: dog, MDCK-MDR1, MDCKII-MDR1
Procedure: as §4, §5

MDR1 = assay: MDCKII-MDR1 permeability; type: in vitro ADME, canine; conditions: dog, MDCK-MDR1
Procedure: as §4, §5

[3] = Brain tissue binding by equilibrium dialysis; type: in vitro ADME; conditions: rat
Procedure: (§3) Plasma protein binding and brain tissue binding were determined by Pharmaron, Inc. using the equilibrium dialysis method. […] Following incubation, the samples were analyzed by LC-MS/MS and the concentrations of the compounds were determined in the buffer and plasma solution chambers.

[4] = Brain tissue binding by equilibrium dialysis; type: in vitro ADME, mouse; conditions: CD-1, mouse
Procedure: as §3

Compound: CC[C@H](C)C(=O)O[C@H]1C[C@@H](C)C=C2C=C[C@H](C)[C@H](CC[C@@H]3C[C@@H](O)CC(=O)O3)[C@H]21 [Mevinolin, reference compound]
- half-life at 5 μM (Plasma stability [1]; Sprague-Dawley, ∞ = no degradation): 2.49 min
- Remaining Percentages (Plasma stability [1]; 15 min): 1.54%
- Remaining Percentages (Plasma stability [1]; 30 min): 0.42%
- Remaining Percentages (Plasma stability [1]; 60 min): 0.30%
- Remaining Percentages (Plasma stability [1]; 120 min): 0.27%

Compound: C#Cc1cccc(Nc2ncnc3cc(OCCOC)c(OCCOC)cc23)c1 [Erlotinib]
- efflux status against common efflux transporters (P-gp and BCRP): P-gp and BCRP Substrate

Compound: Nc1c2ccccc2nc2ccccc12 [9-Aminoacridine, reference compound]
- Count (# of wells) (TA1535; TA1535+S9, 1.0E-05 M): 0
- Positive Significance (- to +++) (TA1535; TA1535+S9, 1.0E-05 M): -
- Count (# of wells) (TA1535; TA1535-S9, 1.0E-05 M): 1
- Positive Significance (- to +++) (TA1535; TA1535-S9, 1.0E-05 M): -
- Count (# of wells) (TA98; TA98+S9, 1.0E-05 M): 1
- Positive Significance (- to +++) (TA98; TA98+S9, 1.0E-05 M): -
- Count (# of wells) (TA98; TA98-S9, 1.0E-05 M): 0
- Positive Significance (- to +++) (TA98; TA98-S9, 1.0E-05 M): -
- Count (# of wells) (TA1537; TA1537+S9, 1.0E-05 M): 17
- Count (# of wells) (TA1537; TA1537-S9, 1.0E-05 M): 11
- Positive Significance (- to +++) (TA1537; TA1537-S9, 1.0E-05 M): ++ (strong positive, if P < 0.01 (denoted as “++”))
- Count (# of wells) (TA100; TA100+S9, 1.0E-05 M): 3
- Positive Significance (- to +++) (TA100; TA100+S9, 1.0E-05 M): -
- Count (# of wells) (TA100; TA100-S9, 1.0E-05 M): 2
- Positive Significance (- to +++) (TA100; TA100-S9, 1.0E-05 M): -

Compound: Nc1ccc2cc3ccccc3cc2c1 [2-Aminoanthracene, reference compound]
- Count (# of wells) (TA1535; TA1535+S9, 5.0E-06 M): 15
- Count (# of wells) (TA98; TA98+S9, 2.0E-06 M): 47
- Count (# of wells) (TA98; TA98-S9, 5.0E-06 M): 1
- Positive Significance (- to +++) (TA98; TA98-S9, 5.0E-06 M): -
- Count (# of wells) (TA1537; TA1537+S9, 1.0E-05 M): 14
- Positive Significance (- to +++) (TA1537; TA1537+S9, 1.0E-05 M): ++ (strong positive, if P < 0.01 (denoted as “++”))
- Count (# of wells) (TA1537; TA1537-S9, 5.0E-06 M): 1
- Positive Significance (- to +++) (TA1537; TA1537-S9, 5.0E-06 M): -
- Count (# of wells) (TA100; TA100+S9, 1.0E-06 M): 21
- Count (# of wells) (TA100; TA100-S9, 5.0E-06 M): 4
- Positive Significance (- to +++) (TA100; TA100-S9, 5.0E-06 M): -

- Remaining Percentages (Plasma stability [2]; 15 min): 69.10%
- Remaining Percentages (Plasma stability [2]; 30 min): 48.79%
- Remaining Percentages (Plasma stability [2]; 60 min): 22.07%
- Remaining Percentages (Plasma stability [2]; 120 min): 4.85%
- half-life at 5 μM (Plasma stability [2]; ∞ = no degradation): 27.6 min
Compound: CC(C)[N+](C)(CCOC(=O)C1c2ccccc2Oc2ccccc21)C(C)C [Propantheline, reference compound]

- efflux ratio at 2 h, 5 μM (Caco-2 permeability): 50.1
- recovery at 2 h, 5 μM (Caco-2 permeability; read-out: Recovery% (AP-BL)): 108%
- recovery at 2 h, 5 μM (Caco-2 permeability; read-out: Recovery% (BL-AP)): 96.2%
- Papp A→B at 2 h, 5 μM (Caco-2 permeability): 2.7 nm/s
- Papp B→A at 2 h, 5 μM (Caco-2 permeability): 134 nm/s
- recovery at 2 h, 1 μM (MDCKII-MDR1 permeability; read-out: Recovery% (AP-BL)): 98.8%
- recovery at 2 h, 1 μM (MDCKII-MDR1 permeability; read-out: Recovery% (BL-AP)): 100%
- efflux ratio at 2 h, 1 μM (MDR1): 40.6
- Papp A→B at 2 h, 1 μM (MDR1): 2.5 nm/s
- Papp B→A at 2 h, 1 μM (MDR1): 102 nm/s
Compound: C[C@H]1O[C@@H](O[C@H]2[C@@H](O)C[C@H](O[C@H]3[C@@H](O)C[C@H](O[C@H]4CC[C@@]5(C)[C@H](CC[C@@H]6[C@@H]5C[C@@H](O)[C@]5(C)[C@@H](C7=CC(=O)OC7)CC[C@]65O)C4)O[C@@H]3C)O[C@@H]2C)C[C@H](O)[C@@H]1O [Digoxin, reference compound]

Compound: CCCc1nc2c(C)cc(-c3nc4ccccc4n3C)cc2n1Cc1ccc(-c2ccccc2C(=O)O)cc1 [Telmisartan, reference compound]
- recovery at 6 h, 5 μM ([3]; Sprague-Dawley (SD), rat brain homogenate): 107%
- fraction unbound at 6 h, 5 μM ([3]; Sprague-Dawley, brain homogenate, read-out: fu,brain% / %Unboundbrain): 0.0146
- remaining at 6 h, 5 μM ([3]; Sprague-Dawley, rat brain homogenate): 100%
- fraction unbound at 6 h, 5 μM ([3]; Sprague-Dawley, rat brain homogenate, read-out: %Boundbrain (converted)): 0.0146
- fraction unbound at 6 h, 5 μM ([4]; brain homogenate, read-out: fu,brain% / %Unboundbrain): 0.0143
- recovery at 6 h, 5 μM ([4]; mouse brain homogenate): 109%
- remaining at 6 h, 5 μM ([4]; mouse brain homogenate): 108%
- fraction unbound at 6 h, 5 μM ([4]; mouse brain homogenate, read-out: %Unboundbrain (converted)): 0.0143

- efflux ratio at 2 h, 5 μM (Caco-2 permeability): 0.89
- recovery at 2 h, 5 μM (Caco-2 permeability; read-out: Recovery% (AP-BL)): 97.4%
- recovery at 2 h, 5 μM (Caco-2 permeability; read-out: Recovery% (BL-AP)): 98.4%
- Papp A→B at 2 h, 5 μM (Caco-2 permeability): 249 nm/s
- Papp B→A at 2 h, 5 μM (Caco-2 permeability): 222 nm/s
- recovery at 2 h, 1 μM (MDCKII-MDR1 permeability; read-out: Recovery% (AP-BL)): 105%
- recovery at 2 h, 1 μM (MDCKII-MDR1 permeability; read-out: Recovery% (BL-AP)): 98.4%
- efflux ratio at 2 h, 1 μM (MDR1): 0.81
- Papp A→B at 2 h, 1 μM (MDR1): 259 nm/s
- Papp B→A at 2 h, 1 μM (MDR1): 209 nm/s
Compound: COCCc1ccc(OCC(O)CNC(C)C)cc1 (centres unmarked) [Metoprolol, reference compound]

Compound: C=CC(=O)Nc1cc(Nc2nccc(-c3cn(C)c4ccccc34)n2)c(OC)cc1N(C)CCN(C)C [Osimertinib]
- efflux status against common efflux transporters (P-gp and BCRP): Moderate P-gp and BCRP Substrate

Compound: COc1cc2ncnc(Nc3ccc(F)c(Cl)c3)c2cc1NC(=O)/C=C/CN1CCCCC1 [Dacomitinib]
- efflux status against common efflux transporters (P-gp and BCRP): P-gp and BCRP Substrate

Compound: O=c1c(O)c(-c2ccc(O)c(O)c2)oc2cc(O)cc(O)c12 [Quercetin, reference compound]
- Count (# of wells) (TA1535; TA1535+S9, 1.0E-05 M): 4
- Positive Significance (- to +++) (TA1535; TA1535+S9, 1.0E-05 M): -
- Count (# of wells) (TA98; TA98+S9, 1.0E-05 M): 30
- Count (# of wells) (TA98; TA98-S9, 1.0E-05 M): 12
- Count (# of wells) (TA1537; TA1537+S9, 3.0E-05 M): 6
- Positive Significance (- to +++) (TA1537; TA1537+S9, 3.0E-05 M): -
- Count (# of wells) (TA1537; TA1537-S9, 1.0E-05 M): 1
- Positive Significance (- to +++) (TA1537; TA1537-S9, 1.0E-05 M): -
- Count (# of wells) (TA100; TA100+S9, 1.0E-05 M): 5
- Positive Significance (- to +++) (TA100; TA100+S9, 1.0E-05 M): -
- Count (# of wells) (TA100; TA100-S9, 1.0E-05 M): 1

Compound: CN(N=O)C(=O)N[C@H]1C(O)O[C@H](CO)[C@@H](O)[C@@H]1O (mixture of isomers) [Streptozotocin, reference compound]
- Count (# of wells) (TA1535; TA1535+S9, 2.5E-06 M): 48
- Count (# of wells) (TA1535; TA1535-S9, 2.5E-06 M): 2
- Positive Significance (- to +++) (TA1535; TA1535-S9, 2.5E-06 M): -
- Count (# of wells) (TA98; TA98+S9, 2.5E-06 M): 2
- Positive Significance (- to +++) (TA98; TA98+S9, 2.5E-06 M): -
- Count (# of wells) (TA98; TA98-S9, 2.5E-06 M): 1
- Positive Significance (- to +++) (TA98; TA98-S9, 2.5E-06 M): -
- Count (# of wells) (TA1537; TA1537+S9, 2.5E-06 M): 7
- Positive Significance (- to +++) (TA1537; TA1537+S9, 2.5E-06 M): -
- Count (# of wells) (TA1537; TA1537-S9, 2.5E-06 M): 2
- Positive Significance (- to +++) (TA1537; TA1537-S9, 2.5E-06 M): -
- Count (# of wells) (TA100; TA100+S9, 2.5E-06 M): 39
- Count (# of wells) (TA100; TA100-S9, 2.5E-06 M): 42

Compound: CN(C)C/C=C/C(=O)Nc1cc2c(Nc3ccc(F)c(Cl)c3)ncnc2cc1O[C@H]1CCOC1 [Afatinib]
- efflux status against common efflux transporters (P-gp and BCRP): P-gp and BCRP Substrate
